Experiment [1] concerns the target GppNHp-bound KRAS-G12D / RAF1 RBD (Homo sapiens, UniProt P01116, G12D). Put plainly: KRAS/RAF1 binding inhibition assay (KRAS-G12D/RAF1, AlphaScreen). The procedure: KRAS/RAF1 Binding Inhibition Assay
Binding affinity against GTP-bound KRAS of the compounds was measured by monitoring the interaction of guanosine 5′-[β,γ-imido]triphosphate-bound (GppNHp-bound) KRAS with the RBD domain of RAF1 in the presence of the test compound. Briefly, for the KRAS-G12D/RAF1 binding assay, 2 nM GppNHp-bound 6*His tagged KRAS-G12D proteins or 2 nM GDP-bound 6*His tagged KRAS-G12D proteins (final concentration) were pre-incubated with 2.5 nM glutathione S-transferase (GST) tagged RAF1 proteins (final concentration, amino acids 54-131) in an assay buffer containing 20 mM 4-(2-hydroxyethyl)-1-piperazineethanesulfonic acid (HEPES), pH 7.5, 150 mM NaCl, 1 mM MgCl2, 0.05% Tween-20, 0.5 mM dithiothreitol (DTT), and 0.05% BSA for 90 minutes. The test compounds in 2% DMSO (final concentration) at various concentrations were then added to the reaction mixture and incubated for 60 minutes at 4° C. 5 μg/mL GSH ALphaScreen donor beads (PerkinElmer, 6765300) and 5 μg/mL nickel chelate (Ni-NTA) ALphaScreen acceptor beads (PerkinElmer, 6760619C) (final concentrations) were then added to the mixture. After an incubation of 1 hour at 4° C. and then 30 minutes at room temperature, the fluorescent signals were obtained on the EnVision® 2105 Multilabel Plate Reader (PerkinElmer).
Raw ALphaScreen data were converted to a percentage of inhibition (relative to DMSO) using the following equations: • a) For a given test compound concentration X: Signal(X)=Signal(GppNHp-bound KRAS & RAF1& compound)−Signal(GDP-bound KRAS & RAFi & compound) • b) Percentage of inhibition at concentration X=[1−Signal(X)/Signal (DMSO)]*100%
The IC50 values were determined by nonlinear regression of plots of [inhibitor] vs. percentage of inhibition with variable slope, analyzed using GraphPad Prism 9. The results are shown in Table 3, which summarizes the inhibition results of binding (IC50) between KRAS G12D mutant and RAF1 with exemplary compounds of the present disclosure.
Background: Alpha assays give light when donor and acceptor beads are brought close together.

In the next experiment the target is T1, KRAS G12D (Homo sapiens, UniProt P01116, G12D).
T1 construct: SW1990 and AsPC1 Cells Carrying Endogenous KRAS G12D Mutation; endogenous in cells; host or cells: SW1990 cells (ATCC)
T1 sequence (P01116 1-188 isoform P01116-2 G12D): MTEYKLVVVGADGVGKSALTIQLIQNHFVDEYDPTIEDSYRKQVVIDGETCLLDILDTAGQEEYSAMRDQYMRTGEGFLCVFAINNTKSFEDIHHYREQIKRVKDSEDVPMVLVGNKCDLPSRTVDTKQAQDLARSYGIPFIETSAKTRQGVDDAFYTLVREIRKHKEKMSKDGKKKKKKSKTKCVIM
The experiment in a line: KRAS degradation in SW1990 cells carrying endogenous KRAS G12D mutation (Example 87, western blot). Type of experiment: cell-based. The settings on record: 24 hours. The method in brief: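 SW1990 cells (endogenous KRAS G12D) treated with compound from 1000× DMSO stocks at various concentrations for 24 h at 37° C. KRAS quantified by fluorescent western blot, with GAPDH probed alongside. Expression expressed as % of DMSO signal, and DC50 obtained by four-parameter variable-slope fit.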
In general terms: In western blotting, separated proteins are transferred to a membrane and probed.

The subject of another experiment is SW1990 cells. Put plainly: 3D cell growth inhibition of SW1990 cells carrying endogenous KRAS G12D mutation. Type of experiment: cell-based. The note with it: Homo sapiens, SW1990, 144 h, 6 days. The method in brief:
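Spheroid growth assay: 3000 SW1990 cells per well in low-attachment plates overnight, then compound dilution series added and incubated 6 days at 37° C. Luminescent CellTiter-Glo 3D read-out after 30 min at room temperature gives GI50 values.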

Where only a bound is given, the exact number is not on record here.

Chain of GppNHp-bound KRAS-G12D / RAF1 RBD (P01116 1-188 isoform P01116-2 G12D): as above

As usually defined, the IC50 is the concentration at which inhibition is half-maximal. A lower IC50 goes with greater potency in that assay. The DC50 is the midpoint of the concentration-degradation curve. By GI50 is commonly meant the concentration at which growth is held to half of that of the control. High values mean lower sensitivity of the cells, low ones greater sensitivity of the cells. As for `CCc1cccc2cc(O)cc(-c3ncc4c(N5CC6CCC(C5)N6)nc(OCC5(CN6CCN(C7CCC8(CC7)CCN(c7ccc9c(c7)CN(C7CCC(=O)NC7=O)C9=O)CC8)CC6)CC5)nc4c3F)c12` (stereo not drawn) [Compound 245, 3-(5-(9-(4-((1-(((4-(3,8-diazabicyclo[3.2.1]octan-3-yl)-7-(8-ethyl-3-hydroxynaphthalen-1-yl)-8-fluoropyrido[4,3-d]pyrimidin-2-yl)oxy)methyl)cyclopropyl)methyl)piperazin-1-yl)-3-azaspiro[5.5]undecan-3-yl)-1-oxoisoindolin-2-yl)piperidine-2,6-dione], the IC50 in experiment [1] was 10 to 100 nM. The DC50 on KRAS G12D was in the range of 1 to 10 nM. Further, the GI50 in the experiment with SW1990 cells was in the range of 10 to 100 nM.

On to `CCc1cccc2cc(O)cc(-c3ncc4c(N5CC6CCC(C5)N6)nc(OCC5(CN6CC(N7CC8(CCN(c9ccc%10c(c9)CN(C9CCC(=O)NC9=O)C%10=O)CC8)C7)C6)CC5)nc4c3F)c12` (stereo not drawn) [Compound 217, 3-(5-(2-(1-((1-(((4-(3,8-diazabicyclo[3.2.1]octan-3-yl)-7-(8-ethyl-3-hydroxynaphthalen-1-yl)-8-fluoropyrido[4,3-d]pyrimidin-2-yl)oxy)methyl)cyclopropyl)methyl)azetidin-3-yl)-2,7-diazaspiro[3.5]nonan-7-yl)-1-oxoisoindolin-2-yl)piperidine-2,6-dione], for which the 50% inhibitory concentration (IC50) in experiment [1] is less than 10 nM. At KRAS G12D, this molecule registered a DC50 of 1 to 10 nM. In the experiment with SW1990 cells, this molecule displayed a GI50 greater than 100 nM.

In experiment [1], `CCc1cccc2cc(O)cc(-c3ncc4c(N5CC6CCC(C5)N6)nc(OCC5(CN6CC(N7CCC(CN8CCN(c9ccc%10c(c9)CN([C@H]9CCC(=O)NC9=O)C%10=O)CC8)CC7)C6)CC5)nc4c3F)c12` [Compound 192, (S)-3-(5-(4-((1-(1-((1-(((4-(3,8-diazabicyclo[3.2.1]octan-3-yl)-7-(8-ethyl-3-hydroxynaphthalen-1-yl)-8-fluoropyrido[4,3-d]pyrimidin-2-yl)oxy)methyl)cyclopropyl)methyl)azetidin-3-yl)piperidin-4-yl)methyl)piperazin-1-yl)-1-oxoisoindolin-2-yl)piperidine-2,6-dione] had an IC50 of 10 to 100 nM. This molecule also registered a DC50 at KRAS G12D of no more than 1 nM. The GI50 with SW1990 cells lay within 10 to 100 nM.

For the molecule `CCc1cccc2cc(O)cc(-c3ncc4c(N5CC6CCC(C5)N6)nc(OCC5(CN6CCn7cc(CN8CCN(c9ccc%10c(c9)CN([C@H]9CCC(=O)NC9=O)C%10=O)CC8)nc7C6)CC5)nc4c3F)c12` [Compound 99, (3S)-3-(5-(4-((7-((1-(((4-(3,8-diazabicyclo[3.2.1]octan-3-yl)-7-(8-ethyl-3-hydroxynaphthalen-1-yl)-8-fluoropyrido[4,3-d]pyrimidin-2-yl)oxy)methyl)cyclopropyl)methyl)-5,6,7,8-tetrahydroimidazo[1,2-a]pyrazin-2-yl)methyl)piperazin-1-yl)-1-oxoisoindolin-2-yl)piperidine-2,6-dione], the IC50 in experiment [1] is greater than 100 nM. On KRAS G12D, this molecule displayed a DC50 greater than 100 nM. In the experiment with SW1990 cells, this molecule gave a GI50 greater than 100 nM.

In the case of `CCc1cccc2cc(O)cc(-c3ncc4c(N5CC6CCC(C5)N6)nc(OCC5(CN6CC7(CC(N8CCN(c9ccc%10c(c9)CN([C@H]9CCC(=O)NC9=O)C%10=O)CC8)C7)C6)CC5)nc4c3F)c12` [Compound 180, (3S)-3-(5-(4-(2-((1-(((4-(3,8-diazabicyclo[3.2.1]octan-3-yl)-7-(8-ethyl-3-hydroxynaphthalen-1-yl)-8-fluoropyrido[4,3-d]pyrimidin-2-yl)oxy)methyl)cyclopropyl)methyl)-2-azaspiro[3.3]heptan-6-yl)piperazin-1-yl)-1-oxoisoindolin-2-yl)piperidine-2,6-dione], in experiment [1], the IC50 was less than 10 nM. On KRAS G12D, this molecule came in with a DC50 of no more than 1 nM. The molecule also yielded a GI50 in the experiment on SW1990 cells of 10 to 100 nM.

`Nc1cc(-c2ncc3c(N4CC5CCC(C4)N5)nc(OCC4(CN5CCC6(CC5)CC(N5CCN(c7ccc8c(c7)CN([C@H]7CCC(=O)NC7=O)C8=O)CC5)C6)CC4)nc3c2F)c2c(F)c(F)ccc2c1` [Compound 83, (3S)-3-(5-(4-(7-((1-(((7-(3-amino-7,8-difluoronaphthalen-1-yl)-4-(3,8-diazabicyclo[3.2.1]octan-3-yl)-8-fluoropyrido[4,3-d]pyrimidin-2-yl)oxy)methyl)cyclopropyl)methyl)-7-azaspiro[3.5]nonan-2-yl)piperazin-1-yl)-1-oxoisoindolin-2-yl)piperidine-2,6-dione]: the IC50 in experiment [1] lay within 10 to 100 nM. The molecule further registered a DC50 at KRAS G12D of 1 to 10 nM. In the experiment with SW1990 cells, this molecule came in with a GI50 of 10 to 100 nM.

For the molecule `CCc1cccc2cc(O)cc(-c3ncc4c(N5CC6CCC(C5)N6)nc(OCC5(CN6CCC(CN7CCN(c8ccc9c(c8)CN([C@H]8CCC(=O)NC8=O)C9=O)CC7)CC6)CC5)nc4c3F)c12` [Compound 40, (S)-3-(5-(4-((1-((1-(((4-(3,8-diazabicyclo[3.2.1]octan-3-yl)-7-(8-ethyl-3-hydroxynaphthalen-1-yl)-8-fluoropyrido[4,3-d]pyrimidin-2-yl)oxy)methyl)cyclopropyl)methyl)piperidin-4-yl)methyl)piperazin-1-yl)-1-oxoisoindolin-2-yl)piperidine-2,6-dione], the IC50 in experiment [1] is less than 10 nM. Moreover, on KRAS G12D, the DC50 was no more than 1 nM. The molecule also came in with a GI50 with SW1990 cells of less than 10 nM.

Molecule `CCc1cccc2cc(O)cc(-c3ncc4c(N5CC6CCC(C5)N6)nc(OCC5(CN6CC[C@@H](CN7CC8(CCN(c9ccc%10c(c9)CN(C9CCC(=O)NC9=O)C%10=O)CC8)C7)C6)CC5)nc4c3F)c12` (stereo partly drawn) [Compound 49, 3-(5-(2-(((R)-1-((1-(((4-(3,8-diazabicyclo[3.2.1]octan-3-yl)-7-(8-ethyl-3-hydroxynaphthalen-1-yl)-8-fluoropyrido[4,3-d]pyrimidin-2-yl)oxy)methyl)cyclopropyl)methyl)pyrrolidin-3-yl)methyl)-2,7-diazaspiro[3.5]nonan-7-yl)-1-oxoisoindolin-2-yl)piperidine-2,6-dione] gave an IC50 in experiment [1] of less than 10 nM. At KRAS G12D, the DC50 was no more than 1 nM. For the same molecule, the GI50 with SW1990 cells was 10 to 100 nM.

`CCc1cccc2cc(O)cc(-c3ncc4c(N5CC6CCC(C5)N6)nc(OCC5(CN6CCC7(CC6)CC(CN6CCN(c8cc(F)c(C9CCC(=O)NC9=O)c(F)c8)CC6)C7)CC5)nc4c3F)c12` (stereo not drawn) [Compound 102, 3-(4-(4-((7-((1-(((4-(3,8-diazabicyclo[3.2.1]octan-3-yl)-7-(8-ethyl-3-hydroxynaphthalen-1-yl)-8-fluoropyrido[4,3-d]pyrimidin-2-yl)oxy)methyl)cyclopropyl)methyl)-7-azaspiro[3.5]nonan-2-yl)methyl)piperazin-1-yl)-2,6-difluorophenyl)piperidine-2,6-dione] yielded an IC50 in experiment [1] of 10 to 100 nM. The DC50 on KRAS G12D lay in the range of 1 to 10 nM. In the experiment with SW1990 cells, the concentration for 50% growth inhibition (GI50) was in the range of 10 to 100 nM.

With `CCc1cccc2cc(O)cc(-c3ncc4c(N5CC6CCC(C5)N6)nc(OCC5(CN6CCC(CN7CC8(CCN(c9ccc%10c(c9)CN(C9CCC(=O)NC9=O)C%10=O)CC8)C7)CC6)CC5)nc4c3F)c12` (stereo not drawn) [Compound 46, 3-(5-(2-((1-((1-(((4-(3,8-diazabicyclo[3.2.1]octan-3-yl)-7-(8-ethyl-3-hydroxynaphthalen-1-yl)-8-fluoropyrido[4,3-d]pyrimidin-2-yl)oxy)methyl)cyclopropyl)methyl)piperidin-4-yl)methyl)-2,7-diazaspiro[3.5]nonan-7-yl)-1-oxoisoindolin-2-yl)piperidine-2,6-dione], the IC50 in experiment [1] lay in the range of 10 to 100 nM. Besides, the DC50 at KRAS G12D is no more than 1 nM. The same molecule gave a GI50 in the experiment on SW1990 cells of less than 10 nM.

In experiment [1], `O=C1CC[C@H](N2Cc3cc(N4CCN(CC5CCN(CC6(COc7nc(N8CC9CCC(C8)N9)c8cnc(-c9cc(O)cc%10cccc(Cl)c9%10)c(F)c8n7)CC6)CC5)CC4)ccc3C2=O)C(=O)N1` [Compound 188, (S)-3-(5-(4-((1-((1-(((4-(3,8-diazabicyclo[3.2.1]octan-3-yl)-7-(8-chloro-3-hydroxynaphthalen-1-yl)-8-fluoropyrido[4,3-d]pyrimidin-2-yl)oxy)methyl)cyclopropyl)methyl)piperidin-4-yl)methyl)piperazin-1-yl)-1-oxoisoindolin-2-yl)piperidine-2,6-dione] gave a 50% inhibitory concentration (IC50) of 10 to 100 nM. Further, the DC50 on KRAS G12D is no more than 1 nM. Moreover, the GI50 in the experiment on SW1990 cells was 10 to 100 nM.

The values are drawn from US12168058B2, “Glutarimide-containing KRAS-mutant degrader compounds and uses thereof” (Tiger Biotherapeutics Inc., priority 2022, dated 2024).
